Values after ≈ are worked out from the molar mass of the structure shown. Active and inactive are the calls of the source. No cut-off for these calls is given here.
Columns and labels:
Staphylococcus aureus [1] = experiment: Induction of morphological change in Staphylococcus aureus assessed as morphological distortion at 2 times MIC incubated for 30 mins by SEM analysis; format: functional, organism-based
Staphylococcus aureus [2] = experiment: Additive antibacterial activity against Staphylococcus aureus assessed as fractional inhibitory concentration index incubated for 18 hrs in presence of bacitracin by checkerboard assay; format: functional
Staphylococcus aureus [3] = experiment: Antibacterial activity against Staphylococcus aureus S125 incubated for 18 hrs by broth microdilution method; format: functional
Staphylococcus aureus [4] = experiment: Antibacterial activity against Staphylococcus aureus 794 infected in BALB/c mouse skin wound infection model assessed as wound healing at 1 mg/ml, ip pre-infected with bacteria for 24 hrs followed by compound addition and measured after 13 days post infection; format: functional, organism-based; conditions: time 12.0 day
Staphylococcus aureus [5] = experiment: Antibacterial activity against Staphylococcus aureus at 2 times MIC preincubated for 1 hr with trypsin followed by enzyme inactivation and bacterial addition and measured after 18 hrs; format: functional; conditions: time 19 hrs
Staphylococcus aureus [6] = experiment: Bactericidal activity against Staphylococcus aureus ATCC 25923 incubated for 18 hrs by broth microdilution method; format: functional
Pseudomonas aeruginosa [7] = experiment: Antibacterial activity against Pseudomonas aeruginosa incubated for 18 hrs in presence of FeCl3 by broth microdilution method; format: functional, organism-based
[8] = Toxicity in BALB/c mouse infected with Staphylococcus aureus 794 assessed as increase in number of sweat glands at 1 mg/ml, ip pre-infected with bacteria for 24 hrs followed by compound addition and measured after 13 days by H and E staining based histopathological analysis; format: organism-based; conditions: in vivo, 312 h, time 13 day
Escherichia coli [9] = experiment: Synergistic antibacterial activity against kanamycin resistant Escherichia coli assessed as fractional inhibitory concentration index incubated for 18 hrs in presence of gentamycin by checkerboard assay; format: functional
Cell membrane [10] = experiment: Induction of inner membrane permeabilization in Escherichia coli ML-35 at 1 to 4 times MIC measured every 5 mins for 120 mins by ONPG dye based assay; format: cell membranes
Cell membrane [11] = experiment: Induction of inner membrane permeabilization in Escherichia coli ML-35 […] measured every 5 mins for 120 mins by ONPG dye based assay; format: cell membranes
Escherichia coli [12] = experiment: Antibacterial activity against Escherichia coli infected in BALB/c mouse systemic infection model assessed as reduction in spleen bacterial load at 5 mg/kg, ip measured after 24 hrs; format: functional, organism-based
Escherichia coli [13] = experiment: Antibacterial activity against rifampicin resistant Escherichia coli incubated for 18 hrs by broth microdilution method; format: functional
[14] = tested on: Staphylococcus epidermidis; experiment: Antibacterial activity against Staphylococcus epidermidis ATCC 12228 incubated for 18 hrs by broth microdilution method; format: functional
Staphylococcus aureus [15] = experiment: Synergistic antibacterial activity against methicillin resistant Staphylococcus aureus 113 assessed as fractional inhibitory concentration index incubated for 18 hrs in presence of kanamycin by checkerboard assay; format: functional
Escherichia coli [16] = experiment: Synergistic antibacterial activity against kanamycin resistant Escherichia coli assessed as fractional inhibitory concentration index incubated for 18 hrs in presence of cefotaxime by checkerboard assay; format: functional
[17] = Self-assembly property of compound in water assessed as beta-sheet formation by measuring particle size at 50 uM by […]; format: physicochemical; conditions: buffer
Staphylococcus aureus [18] = experiment: Synergistic antibacterial activity against methicillin resistant Staphylococcus aureus 113 assessed as fractional inhibitory concentration index incubated for 18 hrs in presence of bacitracin by checkerboard assay; format: functional
Escherichia coli [19] = experiment: Antibacterial activity against Escherichia coli infected in BALB/c mouse systemic infection model assessed as reduction in kidney bacterial load at 5 to 10 mg/kg, ip measured after 24 hrs; format: functional, organism-based; conditions: dose 5-10 mg/kg
[20] = Acute toxicity in mouse assessed as tissue hemorrhage at 230.5 mg/kg, ip by H and E staining based assay; format: organism-based; conditions: in vivo
Staphylococcus aureus [21] = experiment: Antibacterial activity against Staphylococcus aureus incubated for 18 hrs in presence of ZnCl2 by broth microdilution method; format: functional, organism-based
[22] = Self-assembly property of compound in PBS assessed as beta-sheet formation by measuring particle size at 50 uM by […]; format: physicochemical; conditions: buffer
Staphylococcus aureus [23] = experiment: Additive antibacterial activity against Staphylococcus aureus assessed as fractional inhibitory concentration index incubated for 18 hrs in presence of ciprofloxacin by checkerboard assay; format: functional
Pseudomonas aeruginosa [24] = experiment: Antibacterial activity against Pseudomonas aeruginosa incubated for 18 hrs in presence of CaCl2 by broth microdilution method; format: functional, organism-based
Staphylococcus aureus [25] = experiment: Antibacterial activity against Staphylococcus aureus incubated for 18 hrs in presence of NH4Cl by broth microdilution method; format: functional, organism-based
Staphylococcus aureus [26] = experiment: Antibacterial activity against Staphylococcus aureus 794 infected in BALB/c mouse skin wound infection model assessed as wound healing by measuring detached scab at 1 mg/ml, ip pre-infected with bacteria for 24 hrs followed by compound addition and measured on day 7; format: functional, organism-based; conditions: time 7.0 day
Staphylococcus aureus [27] = experiment: Synergistic antibacterial activity against kanamycin resistant Staphylococcus aureus assessed as fractional inhibitory concentration index incubated for 18 hrs in presence of rifampin by checkerboard assay; format: functional
[28] = Toxicity in BALB/c mouse infected with Staphylococcus aureus 794 assessed as epidermal layer thickness at 1 mg/ml, ip pre-infected with bacteria for 24 hrs followed by compound addition and measured after 13 days by H and E staining based histopathological analysis; format: organism-based; conditions: in vivo, 312 h, time 13 day
Staphylococcus aureus [29] = experiment: Antibacterial activity against Staphylococcus aureus 794 infected in BALB/c mouse skin wound infection model assessed as wound healing at 1 mg/ml, ip pre-infected with bacteria for 24 hrs followed by compound addition and measured on day 11; format: functional; conditions: time 11 day
Klebsiella pneumoniae = experiment: Additive antibacterial activity against Klebsiella pneumoniae assessed as fractional inhibitory concentration index incubated for 18 hrs in presence of kanamycin by checkerboard assay; format: functional
[30] = Retention time of the compound; format: physicochemical
Staphylococcus aureus [31] = experiment: Antibacterial activity against kanamycin resistant Staphylococcus aureus incubated for 18 hrs by broth microdilution method; format: functional
Pseudomonas aeruginosa [32] = experiment: Additive antibacterial activity against Pseudomonas aeruginosa assessed as fractional inhibitory concentration index incubated for 18 hrs in presence of rifampin by checkerboard assay; format: functional
[33] = Toxicity in BALB/c mouse infected with Staphylococcus aureus 794 assessed as cell necrosis at 1 mg/ml, ip pre-infected with bacteria for 24 hrs followed by compound addition and measured after 13 days in presence of vancomycin by H and E staining based histopathological analysis; format: organism-based; conditions: in vivo, 312 h, time 13 day
Staphylococcus aureus [34] = experiment: Antibacterial activity against rifampicin resistant Staphylococcus aureus incubated for 18 hrs by broth microdilution method; format: functional
Escherichia coli [35] = experiment: Bactericidal activity against Escherichia coli ATCC 25922 incubated for 18 hrs by broth microdilution method; format: functional
Staphylococcus aureus [36] = experiment: Additive antibacterial activity against methicillin resistant Staphylococcus aureus 75 assessed as fractional inhibitory concentration index incubated for 18 hrs in presence of streptomycin by checkerboard assay; format: functional
Staphylococcus aureus [37] = experiment: Antibacterial activity against Staphylococcus aureus incubated for 18 hrs in presence of MgCl2 by broth microdilution method; format: functional, organism-based
Cell membrane [38] = experiment: Induction of inner membrane permeabilization in Escherichia coli ML-35 at 1/2 times MIC measured every 5 mins for 120 mins by ONPG dye based assay; format: cell membranes
Escherichia coli [39] = experiment: […] antibacterial activity against Escherichia coli assessed as fractional inhibitory concentration index incubated for 18 hrs in presence of polymyxin B by checkerboard assay; format: functional
Pseudomonas aeruginosa [40] = experiment: Induction of morphological change in Pseudomonas aeruginosa assessed as leakage of cellular contents at 2 times MIC incubated for 30 mins by SEM analysis; format: functional, organism-based
Staphylococcus aureus [41] = experiment: Antibacterial activity against Staphylococcus aureus infected in BALB/c mouse systemic infection model assessed as reduction in kidney bacterial load at 5 to 10 mg/kg, ip measured after 8 hrs; format: functional, organism-based; conditions: dose 5-10 mg/kg

NCCCC[C@@H](NC(=O)[C@H](N)Cc1c[nH]c2ccccc12)C(=O)N[C@H](Cc1c[nH]c2ccccc12)C(=O)N[C@H](CCCCN)C(=O)N[C@H](Cc1c[nH]c2ccccc12)C(=O)N[C@@H](CC(N)=O)C(=O)NCC(=O)N[C@H](Cc1c[nH]c2ccccc12)C(=O)N[C@H](CCCCN)C(=O)N[C@H](Cc1c[nH]c2ccccc12)C(=O)N[C@H](CCCCN)C(=O)N[C@H](Cc1c[nH]c2ccccc12)C(N)=O
Activity (Staphylococcus aureus [1]): Active
fractional inhibitory concentration index (FICI) (Staphylococcus aureus [2]): 0.563
MIC (Staphylococcus aureus [3]): 8 µM (≈ 14.5 µg/mL)
Activity (Staphylococcus aureus [4]): Active
Activity (Staphylococcus aureus [5]): 100%
MBC (Staphylococcus aureus [6]): 8 µM (≈ 14.5 µg/mL)
Activity (Pseudomonas aeruginosa [7]): Active
Activity [8]: Toxic
fractional inhibitory concentration index (FICI) (Escherichia coli [9]): 0.188
Activity (Cell membrane [10]): Active
Activity (Cell membrane [11]): Dose-Dependent Effect
Activity (Escherichia coli [12]): Active
MIC (Escherichia coli [13]): 8 µM (≈ 14.5 µg/mL)
MIC [14]: 4 µM (≈ 7.27 µg/mL)
fractional inhibitory concentration index (FICI) (Staphylococcus aureus [15]): 0.5
fractional inhibitory concentration index (FICI) (Escherichia coli [16]): 0.375
Activity [17]: 126.5 nm
fractional inhibitory concentration index (FICI) (Staphylococcus aureus [18]): 0.5
Activity (Escherichia coli [19]): Active
Activity [20]: Toxic
Activity (Staphylococcus aureus [21]): Active
Activity [22]: 874.9 nm
fractional inhibitory concentration index (FICI) (Staphylococcus aureus [23]): 1
Activity (Pseudomonas aeruginosa [24]): Active
Activity (Staphylococcus aureus [25]): Active
Activity (Staphylococcus aureus [26]): Active
fractional inhibitory concentration index (FICI) (Staphylococcus aureus [27]): 0.313
Activity [28]: Non-Toxic
Activity (Staphylococcus aureus [29]): 100%
fractional inhibitory concentration index (FICI) (Klebsiella pneumoniae): 0.563
Retention_time [30]: 14.321 min
MIC (Staphylococcus aureus [31]): 4 µM (≈ 7.27 µg/mL)
fractional inhibitory concentration index (FICI) (Pseudomonas aeruginosa [32]): 0.563
Activity [33]: Toxic
MIC (Staphylococcus aureus [34]): 8 µM (≈ 14.5 µg/mL)
MBC (Escherichia coli [35]): 8 µM (≈ 14.5 µg/mL)
fractional inhibitory concentration index (FICI) (Staphylococcus aureus [36]): 0.75
Activity (Staphylococcus aureus [37]): Active
Activity (Cell membrane [38]): inactive
fractional inhibitory concentration index (FICI) (Escherichia coli [39]): 0.375
Activity (Pseudomonas aeruginosa [40]): Active
Activity (Staphylococcus aureus [41]): Active

Source: ChEMBL document CHEMBL5543109, “Novel β-Hairpin Antimicrobial Peptide Containing the β-Turn Sequence of -NG- and the Tryptophan Zippers Facilitate Self-Assembly into Nanofibers, Exhibiting Excellent Antimicrobial Performance” (J Med Chem, 2024)
